Measured values taken from ChEMBL document CHEMBL6115029, “Discovery of Daraxonrasib (RMC-6236), a Potent and Orally Bioavailable RAS(ON) Multi-selective, Noncovalent Tri-complex Inhibitor for the Treatment of Patients with Multiple RAS-Addicted Cancers” (J Med Chem, 2025).
The source made the active and inactive calls. No cut-off for these calls is given here.

Columns and labels:
[1] = Toxicity in female BALB/c nude mouse xenografted with human HPAF-II cells harboring wildtype KRAS/KRAS G12D mutant assessed as effect on body weight at 25 mg/kg, po administered once daily for 28 days; assay type: organism-based; details: in vivo, 672 h, time 28 day
MIA PaCa-2 = experiment: Antitumor activity against human MIA PaCa-2 cells harboring KRAS G12C/G12C mutant xenografted in female BALB/c mouse model assessed as tumor regression at 25 mg/kg, po administered once daily for 28 days; assay type: functional, organism-based; details: time 28.0 day
[2] = Ratio of drug concentration in mouse blood to plasma at 0.1 uM measured upto 120 mins by LC-MS/MS analysis; assay type: ADME, cell-free
[3] = Inhibition of ERK1/2 phosphorylation in human NCI-H358 cells harboring KRAS G12C mutant incubated for 4 hrs by AlphaLISA assay; assay type: cell-based; details: NCI-H358, 4 h
[4] = Metabolic stability in mouse liver microsomes assessed as half-life at 2 uM measured upto 60 mins in presence of NADPH by LC-MS/MS analysis; assay type: ADME, Microsome

blood plasma ratio at 2 h, 0.1 µM [2]: 4.2
EC50 [3]: 1.6 nM
half-life at 2 µM [4]: 1.13 h
SMILES: CCn1c(-c2cc(N3CCN(C)CC3)cnc2[C@H](C)OC)c2c3cc(ccc31)-c1csc(n1)C[C@H](NC(=O)[C@H]1C[C@@H]1C)C(=O)N1CCC[C@H](N1)C(=O)OCC(C)(C)C2
Activity [1]: Non-toxic
Activity (MIA PaCa-2): Active
